Data from paper PMC6979384, “Characterization of the plant homeodomain (PHD) reader family for their histone tail interactions” (Epigenetics & Chromatin, 2020).
Where no end group is shown, it is not given here. [ ]: non-standard residue; d: D form. Arg(Me2a) = CN(C)C(=N)NCCC[C@H](N)C(=O)O; pS = N[C@@H](COP(=O)(O)O)C(=O)O

Experiments:
Assay in all cases: Histone peptide microarray
Format in all cases: binding, human
BPTF (PB) = settings: BPTF (PB), GST-tagged; arrays performed twice, n of 4
Source text: (§1) To more comprehensively define the histone interactions of the 31 PHD readers identified from the domain microarray analyses, we probed each on an alternate microarray platform containing a library of 293 synthetic histone peptides with single or combinatorial PTMs (Additional file 2: Figure S4 and Additional file 3: Table S2).
(§2) The 31 GST-tagged PHD readers identified in the PHD finger domain array were expressed and purified as previously. Histone peptide arrays and peptide pulldown assays were conducted as recently described (specifically, the optimized protocol from Petell et al. for the former).
(§3) Supplementary file 13072_2020_328_MOESM3_ESM.xlsx: Additional file 3: Table S2. […] Excel Tab Peptide List is a compiled list of the entire 293 histone peptide library with amino acid sequence ranges. […] Each number corresponds to the peptide number designated in Peptide List. Excel Tab Average Signals is a compiled set of binding data: chromatin reader at 0.5 μM vs. entire 293 peptide library. Data is presented as the average and standard deviation of 4 replicates. The average signals are colored to indicate signal intensity with green being strong and white being weak/low. […] Key: red= stronger relative binding; blue = weaker relative binding. Excel Tab Array info summary is a table summarizing the domains, sequence coverage, array signal range, and noise for each of the GST-tagged readers assayed on the peptide microarrays.

AIRE (PP) = settings: AIRE (PP), GST-tagged; arrays performed twice, n of 4
Source text: as §1, §2, §3

ING5 = settings: ING5, GST-tagged; arrays performed twice, n of 4
Source text: as §1, §2, §3

CHD4 (PPCC) = settings: CHD4 (PPCC), GST-tagged; arrays performed twice, n of 4
Source text: as §1, §2, §3

MLL5 = settings: MLL5, GST-tagged; arrays performed twice, n of 4
Source text: as §1, §2, §3

TRIM66 (PB) = settings: TRIM66 (PB), GST-tagged; arrays performed twice, n of 4
Source text: as §1, §2, §3

BAZ2B = settings: BAZ2B, GST-tagged; arrays performed twice, n of 4
Source text: as §1, §2, §3

KDM4C (TTP) = settings: KDM4C (TTP), GST-tagged; arrays performed twice, n of 4
Source text: as §1, §2, §3

DPF2 (PPC2W2) = settings: DPF2 (PPC2W2), GST-tagged; arrays performed twice, n of 4
Source text: as §1, §2, §3

MORC3 (CW) = settings: MORC3 (CW), GST-tagged; arrays performed twice, n of 4
Source text: as §1, §2, §3

PHRF1 (RP) = settings: PHRF1 (RP), GST-tagged; arrays performed twice, n of 4
Source text: as §1, §2, §3

SP140L = settings: SP140L, GST-tagged; arrays performed twice, n of 4
Source text: as §1, §2, §3

ING2 = settings: ING2, GST-tagged; arrays performed twice, n of 4
Source text: as §1, §2, §3

DIDO1 = settings: DIDO1, GST-tagged; arrays performed twice, n of 4
Source text: as §1, §2, §3

PHF8 = settings: PHF8, GST-tagged; arrays performed twice, n of 4
Source text: as §1, §2, §3

PHF13 = settings: PHF13, GST-tagged; arrays performed twice, n of 4
Source text: as §1, §2, §3

PHF23 = settings: PHF23, GST-tagged; arrays performed twice, n of 4
Source text: as §1, §2, §3

KDM5A (1) = settings: KDM5A (1), GST-tagged; arrays performed twice, n of 4
Source text: as §1, §2, §3

ING4 = settings: ING4, GST-tagged; arrays performed twice, n of 4
Source text: as §1, §2, §3

KDM5A (3) = settings: KDM5A (3), GST-tagged; arrays performed twice, n of 4
Source text: as §1, §2, §3

CHD5 (PCC) = settings: CHD5 (PCC), GST-tagged; arrays performed twice, n of 4
Source text: as §1, §2, §3

TAF3 = settings: TAF3, GST-tagged; arrays performed twice, n of 4
Source text: as §1, §2, §3

KDM5B (1) = settings: KDM5B (1), GST-tagged; arrays performed twice, n of 4
Source text: as §1, §2, §3

ING1 = settings: ING1, GST-tagged; arrays performed twice, n of 4
Source text: as §1, §2, §3

ING3 = settings: ING3, GST-tagged; arrays performed twice, n of 4
Source text: as §1, §2, §3

KDM7A = settings: KDM7A, GST-tagged; arrays performed twice, n of 4
Source text: as §1, §2, §3

KDM5B (3) = settings: KDM5B (3), GST-tagged; arrays performed twice, n of 4
Source text: as §1, §2, §3

PHF2 = settings: PHF2, GST-tagged; arrays performed twice, n of 4
Source text: as §1, §2, §3

PHF21A = settings: PHF21A, GST-tagged; arrays performed twice, n of 4
Source text: as §1, §2, §3

CHD5 (PPCC) = settings: CHD5 (PPCC), GST-tagged; arrays performed twice, n of 4
Source text: as §1, §2, §3

RAG2 = settings: RAG2, GST-tagged; arrays performed twice, n of 4
Source text: as §1, §2, §3

Row | Array Heatmap value (peptide array binding signal) (BPTF (PB)) | Array Heatmap value (peptide array binding signal) (AIRE (PP)) | Array Heatmap value (peptide array binding signal) (ING5) | Array Heatmap value (peptide array binding signal) (CHD4 (PPCC)) | Array Heatmap value (peptide array binding signal) (MLL5) | Array Heatmap value (peptide array binding signal) (TRIM66 (PB)) | Array Heatmap value (peptide array binding signal) (BAZ2B) | Array Heatmap value (peptide array binding signal) (KDM4C (TTP)) | Array Heatmap value (peptide array binding signal) (DPF2 (PPC2W2)) | Array Heatmap value (peptide array binding signal) (MORC3 (CW)) | Array Heatmap value (peptide array binding signal) (PHRF1 (RP)) | Array Heatmap value (peptide array binding signal) (SP140L) | Array Heatmap value (peptide array binding signal) (ING2) | Array Heatmap value (peptide array binding signal) (DIDO1) | Array Heatmap value (peptide array binding signal) (PHF8) | Array Heatmap value (peptide array binding signal) (PHF13) | Array Heatmap value (peptide array binding signal) (PHF23) | Array Heatmap value (peptide array binding signal) (KDM5A (1)) | Array Heatmap value (peptide array binding signal) (ING4) | Array Heatmap value (peptide array binding signal) (KDM5A (3)) | Substance | other results
1 | 0.3416 | 0.4061 | 0.3401 | 0.5411 | 0.5527 | 0.6358 | 0.4585 | 0.4418 | 0.6169 | 0.3531 | 0.4082 | 0.3352 | 0.5954 | 0.6572 | 0.3477 | 0.6011 | 0.5294 | 0.4472 | 0.4409 | 0.4055 | H2AR3me2a + K5ac: H2A 1-17 (SG[Arg(Me2a)]GK(Ac)QGGKARAKAKTR; UniProt P0C0S8 2-18, looked up, fragment) | Array Heatmap value (peptide array binding signal) (CHD5 (PCC)): 0.7634; Array Heatmap value (peptide array binding signal) (TAF3): 0.2475; Array Heatmap value (peptide array binding signal) (KDM5B (1)): 0.6265; Array Heatmap value (peptide array binding signal) (ING1): 0.502; Array Heatmap value (peptide array binding signal) (ING3): 0.4528; Array Heatmap value (peptide array binding signal) (KDM7A): 0.3242; Array Heatmap value (peptide array binding signal) (KDM5B (3)): 0.4618; Array Heatmap value (peptide array binding signal) (PHF2): 0.5234; Array Heatmap value (peptide array binding signal) (PHF21A): 0.4417; Array Heatmap value (peptide array binding signal) (CHD5 (PPCC)): 0.5209; Array Heatmap value (peptide array binding signal) (RAG2): 0.2374
2 | 0.3406 | 0.5117 | 0.3496 | 0.5891 | 0.519 | 0.5729 | 0.4549 | 0.5241 | 0.6038 | 0.4032 | 0.4027 | 0.3555 | 0.5905 | 0.6263 | 0.3673 | 0.6036 | 0.5205 | 0.482 | 0.4636 | 0.391 | H2AS1p + K5ac + K9ac + K13ac + K15ac: H2A 1-17 ([pS]GRGK(Ac)QGGK(Ac)ARAK(Ac)AK(Ac)TR; UniProt P0C0S8 2-18, looked up, fragment) | Array Heatmap value (peptide array binding signal) (CHD5 (PCC)): 0.7774; Array Heatmap value (peptide array binding signal) (TAF3): 0.2828; Array Heatmap value (peptide array binding signal) (KDM5B (1)): 0.6538; Array Heatmap value (peptide array binding signal) (ING1): 0.5008; Array Heatmap value (peptide array binding signal) (ING3): 0.4609; Array Heatmap value (peptide array binding signal) (KDM7A): 0.4384; Array Heatmap value (peptide array binding signal) (KDM5B (3)): 0.5168; Array Heatmap value (peptide array binding signal) (PHF2): 0.4023; Array Heatmap value (peptide array binding signal) (PHF21A): 0.4797; Array Heatmap value (peptide array binding signal) (CHD5 (PPCC)): 0.5428; Array Heatmap value (peptide array binding signal) (RAG2): 0.2429
3 | 0.2697 | 0.2932 | 0.2521 | 0.4644 | 0.4623 | 0.4856 | 0.3559 | 0.3213 | 0.5432 | 0.3086 | 0.3697 | 0.2923 | 0.5878 | 0.6049 | 0.2793 | 0.4493 | 0.4819 | 0.3412 | 0.3411 | 0.4071 | H2AS1p + K5ac: H2A 1-17 ([pS]GRGK(Ac)QGGKARAKAKTR; UniProt P0C0S8 2-18, looked up, fragment) | Array Heatmap value (peptide array binding signal) (CHD5 (PCC)): 0.6294; Array Heatmap value (peptide array binding signal) (TAF3): 0.2127; Array Heatmap value (peptide array binding signal) (KDM5B (1)): 0.5673; Array Heatmap value (peptide array binding signal) (ING1): 0.485; Array Heatmap value (peptide array binding signal) (ING3): 0.3526; Array Heatmap value (peptide array binding signal) (KDM7A): 0.2299; Array Heatmap value (peptide array binding signal) (KDM5B (3)): 0.3803; Array Heatmap value (peptide array binding signal) (PHF2): 0.5004; Array Heatmap value (peptide array binding signal) (PHF21A): 0.3599; Array Heatmap value (peptide array binding signal) (CHD5 (PPCC)): 0.3972; Array Heatmap value (peptide array binding signal) (RAG2): 0.2266
